In US12285403B2, “A2-73 as a therapeutic for insomnia, anxiety and agitation” (Anavex Life Sciences Corp., priority 2016, dated 2025):

Key:
[1] = test system: insomnia, anxiety or agitation; test: Single-patient therapy Examples 1-10 (insomnia, anxiety, agitation); assay type: in vivo, human
Description: A person presents as suffering from maintenance insomnia for one year. They are started on oral A2-73 at 10 mg/day. […] They are currently maintained on 10 mg of A2-73 and is sleeping well. A person presents with anxiety of three years' duration. They are administered A2-73 at 20 mg oral per day every other day. […] They are maintained on this dosing schedule for 60 days. […] They are treated with 30 mg A2-73 oral daily for 30 days. […] They are currently maintained at that dosage and is not anxious. A person presents with MCI and reports maintenance insomnia for one year. They are started on oral A1-41 at 10 mg/day. […] They are currently maintained on 10 mg of A1-41 and is sleeping well. The patient is a person with diagnosed AD and reported anxiety of three years' duration. They are administered A19-144 at 20 mg oral per day every day for 90 days. […] They are chronically maintained on this dosing schedule. A person diagnosed with mild cognitive impairment presents as suffering from maintenance insomnia for one year. They are started on oral A2-73 at 50 mg/day. […] They are currently maintained on 50 mg of A2-73 daily and is sleeping well. A person diagnosed with Alzheimer's disease presents with insomnia/WASO and agitation and a systolic blood pressure of 145 mm Hg. They are started on oral A2-73 at 30 mg/day. […] They are also less agitated. Their results on all cognitive tests and HAM-D improve. They are currently maintained on 30 mg of A2-73 daily. A person diagnosed with Alzheimer's disease presents with insomnia/WASO and agitation. They are started on oral A2-73 at 100 mg/day. […] They are also less agitated. Their results on all cognitive tests and HAM-D improve. They are currently maintained on 100 mg of A2-73 every other day. A person diagnosed with Alzheimer's disease presents with insomnia/WASO and agitation. They are started on oral A19-144 at 50 mg/day. […] They are also less agitated. Their results on all cognitive tests and HAM-D improve. They are currently maintained on 50 mg of A19-144 daily. A person diagnosed with Alzheimer's disease presents with insomnia/WASO and agitation. They are started on oral A1-41 at 30 mg/day. […] They are also less agitated. Their results on all cognitive tests and HAM-D improve. They are currently maintained on 30 mg of A1-41 daily.

[2] = test system: muscarinic acetylcholine receptors; details: 'is believed to bind'; cited from earlier work
sigma-1 receptors = sigma-1 receptors (Homo sapiens, UniProt Q99720); details: 'is believed to bind'; cited from earlier work
Chain of sigma-1 receptors (Q99720 whole entry): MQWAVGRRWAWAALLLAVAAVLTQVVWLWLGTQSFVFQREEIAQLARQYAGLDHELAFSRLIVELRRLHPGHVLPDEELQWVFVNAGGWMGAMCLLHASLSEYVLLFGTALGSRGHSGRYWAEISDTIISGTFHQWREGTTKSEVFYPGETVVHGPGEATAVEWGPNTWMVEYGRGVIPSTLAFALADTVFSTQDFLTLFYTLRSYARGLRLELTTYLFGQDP

[3] = Example 10: oral 30 mg/day, 60 days
[4] = Example 9: oral 50 mg/day, 30 days

SMILES: CN(C)CC1COC(c2ccccc2)(c2ccccc2)C1.Cl (stereo not shown) [A1-41, tetrahydro-N,N-dimethyl-5,5-diphenyl-3-furanmethanamine hydrochloride]
- Sleep at follow up (maintenance insomnia) ([1]; Example 4: person with MCI, oral 10 mg/day, 30 days): sleeping well
- Agitation at follow up [1, 3]: less agitated
- Results on all cognitive tests and HAM-D [1, 3]: improve
- Sleep at follow up (insomnia/WASO) ([1]; Example 10: person with AD, oral 30 mg/day, 60 days): sleeping well through the night

SMILES: CNCC1CCOC1(c1ccccc1)c1ccccc1.Cl (stereo not shown) [A19-144, 1-(2,2-diphenyltetrahydrofuran-3-yl)-N-methylmethanamine hydrochloride]
- Anxiety ([1]; Example 5: person with AD, 20 mg oral every day, after two days of dosing): Resolution of the anxiety
- Agitation at follow up [1, 4]: less agitated
- Results on all cognitive tests and HAM-D [1, 4]: improve
- Sleep at follow up (insomnia/WASO) ([1]; Example 9: person with AD, oral 50 mg/day, 30 days): sleeping well through the night
- Affinity for muscarinic acetylcholine receptors [2]: low micromolar range
- Affinity for sigma-1 receptors (sigma-1 receptors): low micromolar range
